From US20060069132A1, “Azolecarboxamide herbicides” (priority 2004, published 2006)

How the values were obtained:
[1] = tested on: velvetleaf; assay: Test C pre-/postemergence herbicide test; assay type: in vivo, Abutilon theophrasti
Procedure, shortened: (§1)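 Seeds were planted and sprayed preemergence with test chemicals in a non-phytotoxic solvent mixture containing surfactant; postemergence treatments went onto plants 2 to 18 cm tall (1- to 4-leaf stage). After 12 to 14 days in a greenhouse, injury was rated visually against untreated controls on a 0–100 scale.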

[2] = tested on: cocklebur; assay: Test C pre-/postemergence herbicide test; assay type: in vivo, Xanthium strumarium; conditions: for Cocklebur plant response rating: 500 g ai/ha
Procedure, shortened: as §1

[3] = tested on: barnyardgrass; assay: Test A pre-/postemergence herbicide test; assay type: in vivo, Echinochloa crus-galli
Procedure, shortened: (§2)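 Seeds sown in sandy loam received a preemergence directed soil spray of compound in non-phytotoxic solvent with surfactant; postemergence plants (2–10 cm, one- to two-leaf stage) were sprayed to runoff at the same time. After ~10 days in greenhouse, injury was rated visually versus untreated controls (0 = no effect, 100 = complete control).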

[4] = tested on: pigweed; assay: Test C pre-/postemergence herbicide test; assay type: in vivo, Amaranthus retroflexus
Procedure, shortened: as §1

[5] = tested on: rice; assay: Test B pre-/postemergence herbicide test; assay type: in vivo, Oryza sativa; conditions: preemergence
Procedure, shortened: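 Formulation: non-phytotoxic solvent mix with surfactant. Timing: preemergence on seed and postemergence on 2–18 cm plants, applied concurrently. Readout after 13–15 d greenhouse: visual 0–100 control rating against controls.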

[6] = tested on: johnsongrass; assay: Test C pre-/postemergence herbicide test; assay type: in vivo, Sorghum halepense
Procedure, shortened: as §1

[7] = tested on: corn; assay: Test C pre-/postemergence herbicide test; assay type: in vivo, Zea mays
Procedure, shortened: as §1

[8] = tested on: redroot pigweed; assay: Test A pre-/postemergence herbicide test; assay type: in vivo, Amaranthus retroflexus
Procedure, shortened: as §2

[9] = 62 g ai/ha, preemergence, scale 0 to 100
[10] = 250 g ai/ha, scale 0-100, preemergence
[11] = 500 g ai/ha, scale 0 to 100 (0 no effect, 100 complete control), visual, 12 to 14 days, preemergence
[12] = 125 g ai/ha, scale 0 (no effect) to 100 (complete control), visual, 12 to 14 days, preemergence
[13] = Preemergence, scale 0 to 100, 0 no effect, 100 complete control
[14] = Postemergence, 500 g ai/ha, 0 to 100 scale, 0 no effect, 100 complete control
[15] = Postemergence, 2000 g ai/ha, 0 to 100 scale, 0 no effect, 100 complete control
[16] = Preemergence, 2000 g ai/ha, visual rating, 0 to 100 scale (0 no effect, 100 complete control)
[17] = preemergence, 500 g ai/ha, visual injury, 0 to 100 scale (0 no effect, 100 complete control)
[18] = 125 g ai/ha, 0 = no effect, 100 = complete control
[19] = 500 g ai/ha, visual rating, 0 = no effect, 100 = complete control
[20] = 250 g ai/ha, scale 0 to 100 (0 no effect, 100 complete control), visual, 12 to 14 days, preemergence
[21] = Preemergence, 500 g ai/ha, scale 0 to 100, 0 no effect, 100 complete control
[22] = Preemergence, 500 g ai/ha, visual rating, 0 to 100 scale (0 no effect, 100 complete control)
[23] = Preemergence, 2000 g ai/ha, 0 to 100 scale, 0 no effect, 100 complete control
[24] = Postemergence, 500 g ai/ha, scale 0 to 100
[25] = Postemergence, 250 g ai/ha, scale 0 to 100, 0 no effect, 100 complete control
[26] = postemergence, 62 g ai/ha, scale 0 to 100
[27] = postemergence, 125 g ai/ha, scale 0 to 100

## CCNC(=O)c1ccc(F)c(NC(=O)C2CC(C(C)(C)C)=NN2CC)c1 (racemic) [Compound 269]
[1]; [9]
  Plant response rating, Velvetleaf: 5
[1]; [10]
  Plant response rating, Velvetleaf: 75
[1]; [11]
  Plant response rating, Velvetleaf: 80
[2]; [9]
  Plant response rating, Cocklebur: 0
[2]; [12]
  Plant response rating, Cocklebur: 0
[2]; [10]
  Plant response rating, Cocklebur: 5
[2]; [13]
  Cocklebur plant response rating: 50
[3]; [14]
  Barnyardgrass plant response rating: 70
[3]; [15]
  Plant response rating, Barnyardgrass: 80
[3]; [16]
  Barnyardgrass plant response rating: 100
[3]; [17]
  Barnyardgrass plant response rating: 95
[4]; [9]
  Plant response rating, Pigweed: 100
[4]; [12]
  Plant response rating, Pigweed: 100
[4]; [10]
  Plant response rating, Pigweed: 100
[4]; [11]
  Plant response rating, Pigweed: 100
[5]; [18]
  Rice plant response rating (0 to 100 scale): 70
[5]; [19]
  Plant response rating, Rice: 90
[6]; [9]
  Plant response rating, Johnsongrass: 40
[6]; [12]
  Plant response rating, Johnsongrass: 60
[6]; [10]
  Plant response rating, Johnsongrass: 100
[6]; [11]
  Plant response rating, Johnsongrass: 100
[7]; [12]
  Plant response rating, Corn: 20
[7]; [10]
  Plant response rating, Corn: 40
[7]; [11]
  Plant response rating, Corn: 55
[8]; [14]
  Pigweed plant response rating: 35
[8]; [15]
  Plant response rating, Pigweed: 50
[8]; [16]
  Pigweed plant response rating: 100
[8]; [17]
  Pigweed plant response rating: 100

## CCN1CCc2c(NC(=O)c3cc(C(C)(C)C)nn3CC)cccc2C1=O [Compound 63]
[1]; [12]
  Plant response rating, Velvetleaf: 10
[1]; [20]
  Plant response rating, Velvetleaf: 30
[1]; [21]
  Velvetleaf plant response rating: 100
[2]; 62 g ai/ha, preemergence
  Plant response rating (0 = no effect, 100 = complete control), Cocklebur: 0
[2]; [12]
  Plant response rating, Cocklebur: 0
[2]; [20]
  Plant response rating, Cocklebur: 0
[2]; [13]
  Cocklebur plant response rating: 0
[3]; [14]
  Plant response rating, Barnyardgrass: 60
[3]; [15]
  Plant response rating, Barnyardgrass: 90
[3]; [22]
  Barnyardgrass plant response rating: 70
[3]; [23]
  Barnyardgrass plant response rating: 100
[4]; 62 g ai/ha, preemergence
  Plant response rating (0 = no effect, 100 = complete control), Pigweed: 100
[4]; [12]
  Plant response rating, Pigweed: 100
[4]; [20]
  Plant response rating, Pigweed: 100
[4]; [21]
  Pigweed plant response rating: 100
[5]; 125 g ai/ha, 0 to 100 scale, 0 is no effect, 100 is complete control
  Plant response rating, Rice: 50
[6]; 62 g ai/ha, preemergence
  Plant response rating (0 = no effect, 100 = complete control), Johnsongrass: 30
[6]; [12]
  Plant response rating, Johnsongrass: 60
[6]; [20]
  Plant response rating, Johnsongrass: 75
[6]; [21]
  Johnsongrass plant response rating: 100
[7]; 62 g ai/ha, preemergence
  Plant response rating (0 = no effect, 100 = complete control), Corn: 0
[7]; [12]
  Plant response rating, Corn: 0
[7]; [20]
  Plant response rating, Corn: 5
[7]; [21]
  Corn plant response rating: 30
[8]; [14]
  Plant response rating, Pigweed: 95
[8]; [15]
  Plant response rating, Pigweed: 100
[8]; [22]
  Pigweed plant response rating: 100
[8]; [23]
  Pigweed plant response rating: 100

## CCc1nc(C(C)(C)C)sc1C(=O)Nc1cccc(C(=O)NCC2CC2)c1 [Compound 212]
[1]; [9]
  Plant response rating, Velvetleaf: 20
[1]; [12]
  Plant response rating, Velvetleaf: 100
[1]; [10]
  Plant response rating, Velvetleaf: 100
[1]; [11]
  Plant response rating, Velvetleaf: 100
[1]; [24]
  Velvetleaf plant response rating: 70
[1]; [25]
  Plant response rating, Velvetleaf: 50
[1]; [26]
  Plant response rating, Velvetleaf: 0
[2]; [9]
  Plant response rating, Cocklebur: 0
[2]; [12]
  Plant response rating, Cocklebur: 0
[2]; [10]
  Plant response rating, Cocklebur: 5
[2]; Postemergence, scale 0 to 100
  Cocklebur plant response rating: 70
[2]; [25]
  Plant response rating, Cocklebur: 70
[2]; [13]
  Cocklebur plant response rating: 95
[2]; [27]
  Plant response rating, Cocklebur: 60
[2]; [26]
  Plant response rating, Cocklebur: 10
[3]; [14]
  Barnyardgrass plant response rating: 50
[3]; [15]
  Plant response rating, Barnyardgrass: 90
[3]; [16]
  Barnyardgrass plant response rating: 85
[3]; [17]
  Barnyardgrass plant response rating: 80
[4]; [9]
  Plant response rating, Pigweed: 100
[4]; [12]
  Plant response rating, Pigweed: 100
[4]; [10]
  Plant response rating, Pigweed: 100
[4]; [11]
  Plant response rating, Pigweed: 100
[4]; [24]
  Pigweed plant response rating: 90
[4]; [25]
  Plant response rating, Pigweed: 70
[4]; [26]
  Plant response rating, Pigweed: 50
[5]; [18]
  Rice plant response rating (0 to 100 scale): 10
[5]; 500 g ai/ha, visual rating 0-100, 0 no effect, 100 complete control
  Plant response rating, Rice: 20
[6]; [9]
  Plant response rating, Johnsongrass: 0
[6]; [12]
  Plant response rating, Johnsongrass: 0
[6]; [10]
  Plant response rating, Johnsongrass: 50
[6]; [11]
  Plant response rating, Johnsongrass: 60
[6]; [24]
  Johnsongrass plant response rating: 35
[6]; [25]
  Plant response rating, Johnsongrass: 35
[6]; [27]
  Plant response rating, Johnsongrass: 30
[6]; [26]
  Plant response rating, Johnsongrass: 0
[7]; [9]
  Plant response rating, Corn: 0
[7]; [12]
  Plant response rating, Corn: 0
[7]; [10]
  Plant response rating, Corn: 30
[7]; [11]
  Plant response rating, Corn: 40
[7]; [24]
  Corn plant response rating: 40
[7]; [25]
  Plant response rating, Corn: 40
[7]; [27]
  Plant response rating, Corn: 35
[7]; [26]
  Plant response rating, Corn: 15
[8]; [14]
  Pigweed plant response rating: 75
[8]; [15]
  Plant response rating, Pigweed: 90
[8]; [16]
  Pigweed plant response rating: 100
[8]; [17]
  Pigweed plant response rating: 100

## CCN(CC)C(=O)c1cccc(NC(=O)c2cc(C(C)(C)C)nn2C)n1 [Compound 314]
[1]; [9]
  Plant response rating, Velvetleaf: 0
[1]; [10]
  Plant response rating, Velvetleaf: 80
[1]; [11]
  Plant response rating, Velvetleaf: 85
[2]; [9]
  Plant response rating, Cocklebur: 0
[2]; [12]
  Plant response rating, Cocklebur: 0
[2]; [10]
  Plant response rating, Cocklebur: 0
[2]; [13]
  Cocklebur plant response rating: 20
[3]; [14]
  Barnyardgrass plant response rating: 35
[3]; [15]
  Plant response rating, Barnyardgrass: 75
[3]; [16]
  Barnyardgrass plant response rating: 90
[3]; [17]
  Barnyardgrass plant response rating: 50
[4]; [9]
  Plant response rating, Pigweed: 30
[4]; [12]
  Plant response rating, Pigweed: 60
[4]; [10]
  Plant response rating, Pigweed: 90
[4]; [11]
  Plant response rating, Pigweed: 90
[5]; 125 g ai/ha, 0 is no effect, 100 is complete control
  Plant response rating (0 to 100 scale), Rice: 0
[5]; [19]
  Plant response rating, Rice: 10
[6]; [9]
  Plant response rating, Johnsongrass: 0
[6]; [12]
  Plant response rating, Johnsongrass: 20
[6]; [10]
  Plant response rating, Johnsongrass: 70
[6]; [11]
  Plant response rating, Johnsongrass: 90
[7]; [9]
  Plant response rating, Corn: 0
[7]; [12]
  Plant response rating, Corn: 0
[7]; [10]
  Plant response rating, Corn: 0
[7]; [11]
  Plant response rating, Corn: 0
[8]; [14]
  Pigweed plant response rating: 80
[8]; [15]
  Plant response rating, Pigweed: 100
[8]; [16]
  Pigweed plant response rating: 90
[8]; [17]
  Pigweed plant response rating: 80
